Strand notation (5' to 3'): a small letter for the sugar, then the base; units joined by * are phosphorothioate-linked, units joined directly phosphodiester-linked; [ ] holds rarer units or linkages, { } end groups; capitals alone tell only the bases. [OPr] = 2'-O-propyl nucleotide; [OPent] = 2'-O-pentyl nucleotide; d = 2'-deoxy (DNA); m = 2'-O-methyl; f = 2'-fluoro
Columns and labels:
[1] = system: 25 mer oligoribonucleotide complement; test: Melting curves of 2′-modified 17-mers with 7-deoxy gap; assay type: binding; conditions: 17-mer with 7-deoxy gap hybridized with 25 mer oligoribonucleotide complement
Source text: This is attributed to these phosphodiester compounds being substrates for nucleases that degrade such phosphodiester compounds thus preventing them potentially activating RNase H. Other sugar modifications: The effects of other 2′ sugar modifications besides 2′-O-methyl on antisense activity in chimeric oligonucleotides have been examined. These modifications are listed in Table 4, along with the Tm values obtained when 17 mer oligonucleotides having 2′-modified nucleotides flanking a 7-base deoxy gap were hybridized with a 25 mer oligoribonucleotide complement as described in Example 25. […] As alkyl length increased, Tm decreased.
Absorbance vs. temperature curves were measured at 260 nm using a Gilford 260 spectrophotometer interfaced to an IBM PC computer and a Gilford Response II spectrophotometer. The buffer contained 100 mM Na^+, 10 mM phosphate and 0.1 mM EDTA, pH 7. Oligonucleotide concentration was 4 μM each strand determined from the absorbance at 85° C. and extinction coefficients calculated according to Puglisi and Tinoco [Methods in Enzymol., 180, 304 (1989). Tm values, free energies of duplex formation and association constants were obtained from fits of data to a two state model with linear sloping baselines. [Petersheim and Turner, Biochemistry, 22, 256 (1983). Reported parameters are averages of at least three experiments. For some oligonucleotides, free energies of duplex formation were also obtained from plots of Tm^−1 vs log10 (concentration). Borer et al., J. Mol. Biol., 86, 843 (1974).

[2] = system: H-ras; test: ras transactivation reporter gene assay; assay type: cell-based; conditions: for IC50: antisense activity against H-ras, 17-mer with 7-deoxy gap
Source text: The expression plasmid pSV2-oli, containing an activated (codon 12, GGC→GTC) H-ras cDNA insert under control of the constitutive SV40 promoter, was a gift from Dr. Bruno Tocque (Rhone-Poulenc Sante, Vitry, France). This plasmid was used as a template to construct, by PCR, a H-ras expression plasmid under regulation of the steroid-inducible mouse mammary tumor virus (MMTV) promoter. To obtain H-ras coding sequences, the 570 bp coding region of the H-ras gene was amplified by PCR. The PCR primers were designed with unique restriction endonuclease sites in their 5′-regions to facilitate cloning. The PCR product containing the coding region of the H-ras codon 12 mutant oncogene was gel purified, digested, and gel purified once again prior to cloning. This construction was completed by cloning the insert into the expression plasmid pMAMneo (Clontech Laboratories, Calif.).
The ras-responsive reporter gene pRD053 was used to detect ras expression. [Owen et al., Proc. Natl. Acad. Sci. U.S.A., 87, 3866 (1990).

[3] = system: crude HeLa cellular extracts
[4] = system: codon-12 point mutation of mutant (activated) H-ras RNA; assay type: cell-based, human
[5] = system: PKC-α mRNA; test: PKC-α mRNA levels by Northern blot analysis; assay type: cell-based, human; conditions: FIGS. 3, 4 and 5; result in words
Method: Oligonucleotides having SEQ ID NO: 4 were synthesized as uniformly phosphorothioate chimeric oligonucleotides having a centered deoxy gap of varying lengths flanked by 2′-O-methylated regions. These oligonucleotides (500 nM concentration) were tested for effects on PKC-α mRNA levels by Northern blot analysis.

[6] = system: ras mRNA; test: Northern blot analysis of ras expression in T24 cells; assay type: cell-based, human; conditions: result in words
Method: The human urinary bladder cancer cell line T24 was obtained from the American Type Culture Collection (Rockville Md.). Cells were grown in McCoy's 5A medium with L-glutamine (GIBCO-BRL, Gaithersburg, Md.), supplemented with 10% heat-inactivated fetal calf serum and 50 U/ml each of penicillin and streptomycin. Cells were seeded on 100 mm plates. When they reached 70% confluency, they were treated with oligonucleotide. Plates were washed with 10 ml prewarmed PBS and 5 ml of OptiMEM (GIBCO) reduced-serum medium containing 2.5 μl DOTMA. Oligonucleotide was then added to the desired concentration. After 4 hours of treatment, the medium was replaced with McCoy's medium. Cells were harvested 48 hours after oligonucleotide treatment and RNA was isolated using a standard CsCl purification method. [Kingston in Current Protocols in Molecular Biology, F. M. Ausubel, R. Brent, R. E. Kingston, D. D. Moore, J. A. Smith, J. G. Seidman and K. Strahl, Eds., John Wiley and Sons, New York.] The human epithelioid carcinoma cell line HeLa 229 was obtained from the American Type Culture Collection (Bethesda, Md.). HeLa cells were maintained as monolayers on 6-well plates in Dulbecco's Modified Eagle's medium (DMEM) supplemented with 10 fetal bovine serum and 100 U/ml penicillin. Treatment with oligonucleotide and isolation of RNA were essentially as described above for T24 cells.
Northern hybridization: 10 μg of each RNA was electrophoresed on a 1.2% agarose/formaldehyde gel and transferred overnight to GeneBind 45 nylon membrane (Pharmacia LKB, Piscataway, N.J.) using standard methods. [Kingston in Current Protocols in Molecular Biology, F. M. Ausubel, R. Brent, R. E. Kingston, D. D. Moore, J. A. Smith, J. G. Seidman and K. Strahl, Eds., John Wiley and Sons, New York.] RNA was UV-crosslinked to the membrane. Double-stranded ^32P-labeled probes were synthesized using the Prime a Gene labeling kit (Promega, Madison Wis.). The ras probe was a SalI-NheI fragment of a cDNA clone of the activated (mutant) H-ras mRNA having a GGC-to-GTC mutation at codon-12. The control probe was G3PDH. Blots were prehybridized for 15 minutes at 68° C. with the QuickHyb hybridization solution (Stratagene, La Jolla, Calif.). The heat-denatured radioactive probe (2.5×10^6 counts/2 ml hybridization solution) mixed with 100 μl of 10 mg/ml salmon sperm DNA was added and the membrane was hybridized for 1 hour at 68° C. The blots were washed twice for 15 minutes at room temperature in 2×SSC/0.1% SDS and once for 30 minutes at 60° C. with 0.1×SSC/0.1%SDS. Blots were autoradiographed and the intensity of signal was quantitated using an ImageQuant PhosphorImager (Molecular Dynamics, Sunnyvale, Calif.). Northern blots were first hybridized with the ras probe, then stripped by boiling for 15 minutes in 0.1×SSC/0.1%SDS and rehybridized with the control G3PDH probe to check for correct sample loading.

O-Pentyl: 17-mer CCACACCGACGGCGCCC with 2′-O-pentyl nucleotides flanking a 7-base deoxy gap (sugars from the 5' end [OPent]5 d7 [OPent]5, backbone and methylation of C not given here)
Tm (° C.) [1]: 6 °C
IC50 [2]: 150 nM

CsCsAsCsAsCsCoGoAoCoGoGsCsGsCsCsC [Oligonucleotide 4606]
T½ [3]: 1.75 h

CsCsAsCoAoCoCoGoAoCoGoGoCoGsCsCsC [Oligonucleotide 4241]
T½ [3]: 0.9 h
effect on ras expression (ras-luciferase reporter system), chimeric backbone-modified oligonucleotides [4]: completely inactive

7294 (AAAACGTCAGCCATGGTCCC; sugars from the 5' end [OPr]6 d14, linkages s1 o4 s9 o4 s1 (s phosphorothioate, o phosphodiester), methylation of C not given here) [Oligonucleotide 7294]
effect on PKC-α mRNA levels [5]: more active than their 2′-O-methyl counterparts at lowering PKC-α mRNA levels

O-Propyl: 17-mer CCACACCGACGGCGCCC with 2′-O-propyl nucleotides flanking a 7-base deoxy gap (sugars from the 5' end [OPr]5 d7 [OPr]5, backbone and methylation of C not given here)
Tm (° C.) [1]: 7 °C
IC50 [2]: 70 nM
inhibition of ras expression in T24 cells [6]: inhibited

6632 (dT*dT*dC*dT*dC*dG*dC*dT*dG*dG*dT*dG*dA*dG*dT*dT*dT*dC; antisense) [Oligonucleotide 6632]
effect on PKC-α mRNA levels [5]: most active in reducing PKC-α mRNA levels

Oligonucleotide 4689: SEQ ID NO: 1, 2′-fluoro-modified nucleotides flanking a 5-deoxy gap (CCACACCGACGGCGCCC; sugars from the 5' end f6 d5 f6, backbone and methylation of C not given here)
antisense activity against H-ras (inhibition of ras expression) [2]: also active

6653 (TTCTCGCTGGTGAGTTTC; antisense; sugars from the 5' end [OPr]3 d11 [OPr]4, all phosphorothioate, methylation of C not given here) [Oligonucleotide 6653]
effect on PKC-α mRNA levels [5]: most active in reducing PKC-α mRNA levels

7008 (mA*mAmAmAmCdG*dT*dC*dA*dG*dC*dC*dA*dT*dGdGdTdCdC*dC) [Oligonucleotide 7008]
effect on PKC-α mRNA levels [5]: show reduction of PKC-α mRNA

CsCsAsCsAsCsCsGoAoCsGsGsCsGsCsCsC [Oligonucleotide 4546]
T½ [3]: approximately 5.5 hours

3522 (AsAsAsAsCsGsTsCsAsGsCsCsAsTsGsGsTsCsCsC; 2'-O-methyl/deoxy chimeric, phosphorothioate, as printed in the source, key not given here) [Oligonucleotide 3522]
effect on PKC-α mRNA levels [5]: show reduction of PKC-α mRNA

C^FC^FA^F C^FA^FCd CdGdAd CdGdGd C^FG^FC^F C^FC^F [Oligonucleotide 4690]
Tm (° C.) ([1]; listed as 2′-fluoro chimeric oligonucleotide): highest Tm of the series
Tm (° C.) ([1]; listed as Fluoro): 7 °C
antisense activity against H-ras (inhibition of ras expression) [2]: most active
IC50 [2]: 10 nM

4248 (CCACACCGACGGCGCCC; 2'-O-methyl wings, mixed phosphorothioate/phosphodiester, pattern not given here) [Oligonucleotide 4248]
degradation in HeLa cell extract [3]: no degradation after 5 hours

CsCsAsCsAsCsCoGoAoCoGsGsCsGsCsCsC [Oligonucleotide 4593]
T½ [3]: ~3.2 h

7083 (TCTCGCTGGTGAGTTTC; antisense; sugars from the 5' end [OPr]3 d9 [OPr]5, all phosphorothioate, methylation of C not given here) [Oligonucleotide 7083]
effect on PKC-α mRNA levels [5]: most active in reducing PKC-α mRNA levels

4233 (CCACACCGACGGCGCCC; 2'-O-methyl wings, mixed phosphorothioate/phosphodiester, pattern not given here) [Oligonucleotide 4233]
T½ [3]: 7 h

C^MC^MA^M C^MA^MCd CdGdAd CdGdGd C^MG^MC^M C^MC^M [Oligonucleotide 3985]
Tm (° C.) [1]: 7 °C
IC50 [2]: 20 nM
inhibition of ras expression in T24 cells [6]: inhibited

CsCsAsCsAsCsCsGoAoCoGsGsCsGsCsCsC [Oligonucleotide 4551]
T½ [3]: ~3.75 h
